Laboratory results taken from patent US10051861B2, “N-arylamidine-substituted trifluoroethyl sulfide derivatives as acaricides and insecticides” (BAYER CROPSCIENCE AG, priority 2011, dated 2018).
Where two headings read alike, the source gives them in different places. Each block holds one molecule with its values, some of them ahead of it.

Key:
[1] = logP by HPLC on reversed-phase columns (C 18), EEC Directive 79/831 Annex V.A8; assay type: physicochemical
Protocol: Calibration is carried out using unbranched alkan-2-ones (having from 3 to 16 carbon atoms) with known log P values (the log P values are determined by the retention times using linear interpolation between two successive alkanones).

[2] = test system: greenhouse red spider mite (Tetranychus urticae); assay: Tetranychus urticae spray test, OP-resistant (TETRUR), bean leaf disks; assay type: in vivo; conditions: application rate 500 g/ha, after 6 days; for pest or weed control at 500 g/ha: Tetranychus urticae, foliar, 144 h, read-out: efficacy (spider mites killed)
Protocol: After 6 days, the effect in % is determined.

[3] = [a] LC-MS, acidic range, pH 2.7, 0.1% aqueous formic acid/acetonitrile, read-out: logP(HCOOH)
[4] = [b] LC-MS, neutral range, pH 7.8, 0.001 molar aqueous ammonium bicarbonate/acetonitrile, read-out: logP(neutral)
[5] = reversed-phase C18 HPLC column, pH 2.7, [a] LC-MS, acidic range, pH 2.7, 0.1% aqueous formic acid/acetonitrile, read-out: logP(HCOOH)
[6] = reversed-phase C18 HPLC column, pH 7.8, [b] LC-MS, neutral range, pH 7.8, 0.001 molar aqueous ammonium bicarbonate/acetonitrile, read-out: logP(neutral)

SMILES: O=C(Nc1ccc(Br)cc1Br)C(F)(F)F [VI-4, N-(2,4-Dibromophenyl)-2,2,2-trifluoroacetamide]
chromatographic logP [1, 3]: 3.1 | chromatographic logP [1, 4]: 2.89

chromatographic logP [1, 5]: 3.16 | chromatographic logP [1, 6]: 3.1
SMILES: Cc1cc(F)c(SCC(F)(F)F)cc1NC(=O)C(F)(F)F [III-4, 2,2,2-Trifluoro-N-{4-fluoro-2-methyl-5-[(2,2,2-trifluoroethyl)sulfanyl]phenyl}acetamide]

SMILES: O=C(Nc1ccc(F)cc1Cl)C(F)(F)F [VI-5, N-(2-Chloro-4-fluorophenyl)-2,2,2-trifluoroacetamide]
chromatographic logP [1, 3]: 2.46 | chromatographic logP [1, 4]: 2.31

SMILES: Cc1cc(C)c(SCC(F)(F)F)cc1N=C1NCCO1 [2,4-Dimethyl-N-[1,3-oxazolidin-2-ylidene]-5-[(2,2,2-trifluoroethyl)sulfanyl]aniline]
chromatographic logP ([1]; pH 2.7, logP(HCOOH)): 1.36

chromatographic logP [1, 5]: 2.73
SMILES: COc1cc(C)c(SSc2cc(NC(C)=O)c(OC)cc2C)cc1NC(C)=O [N,N′-[Disulfanediylbis(6-methoxy-4-methylbenzene-3,1-diyl)]diacetamide]

chromatographic logP [1, 5]: 4.76 | chromatographic logP [1, 6]: 4.02
SMILES: O=C(Nc1cc(SSc2cc(NC(=O)C(F)(F)F)c(F)cc2Br)c(Br)cc1F)C(F)(F)F [IV-7, N,N′-[Disulfanediylbis(4-bromo-6-fluorobenzene-3,1-diyl)]bis(2,2,2-trifluoroacetamide)]

chromatographic logP [1, 5]: 5.42
SMILES: O=C(Nc1cc(SSc2cc(NC(=O)C(F)(F)F)c(Cl)cc2Br)c(Br)cc1Cl)C(F)(F)F [IV-3, N,N′-[Disulfanediylbis(4-bromo-6-chlorobenzene-3,1-diyl)]bis(2,2,2-trifluoroacetamide)]

chromatographic logP [1, 5]: 1.28 | chromatographic logP [1, 6]: 2.95
SMILES: COc1ccccc1/C(=N\c1cc([S+]([O-])CC(F)(F)F)c(C)cc1F)N(C)C (stereo not drawn) [Ib-161]

logP(HCOOH) ([1]; [a] LC-MS, acidic range, pH 2.7, 0.1% aqueous formic acid/acetonitrile): 3.46 | chromatographic logP [1, 6]: 3.11
SMILES: O=C(Nc1cc(SCC(F)(F)F)c(Br)cc1Cl)C(F)(F)F [III-9, N-{4-Bromo-2-chloro-5-[(2,2,2-trifluoroethyl)sulfanyl]phenyl}-2,2,2-trifluoroacetamide]

chromatographic logP [1, 5]: 3.33 | chromatographic logP [1, 6]: 3.11
SMILES: O=C(Nc1cc(SCC(F)(F)F)c(F)cc1Cl)C(F)(F)F [III-7, N-{2-Chloro-4-fluoro-5-[(2,2,2-trifluoroethyl)sulfanyl]phenyl}-2,2,2-trifluoroacetamide]

chromatographic logP [1, 5]: 4.45 | chromatographic logP [1, 6]: 3.81
SMILES: O=C(Nc1cc(SSc2cc(NC(=O)C(F)(F)F)c(Cl)cc2F)c(F)cc1Cl)C(F)(F)F [IV-5, N,N′-[Disulfanediylbis(6-chloro-4-fluorobenzene-3,1-diyl)]bis(2,2,2-trifluoroacetamide)]

chromatographic logP [1, 5]: 1.37 | chromatographic logP [1, 6]: 3.25
SMILES: Cc1cc(F)c(N=C(N)c2ccccc2F)cc1SCC(F)(F)F [Ia-143]

chromatographic logP [1, 5]: 1.27 | chromatographic logP [1, 6]: 3.47
SMILES: Cc1cc(F)c(/N=C2\CCCN2c2ccccc2)cc1[S+]([O-])CC(F)(F)F (stereo not drawn) [Ib-55, 2-Fluoro-4-methyl-N-[(2E)-1-phenylpyrrolidin-2-ylidene]-5-[(2,2,2-trifluoroethyl)sulfinyl]aniline]

chromatographic logP [1, 5]: 5.62 | chromatographic logP [1, 6]: 4.49
SMILES: O=C(Nc1cc(SSc2cc(NC(=O)C(F)(F)F)c(Br)cc2Br)c(Br)cc1Br)C(F)(F)F [IV-4, N,N′-[Disulfanediylbis(4,6-dibromobenzene-3,1-diyl)]bis(2,2,2-trifluoroacetamide)]

chromatographic logP [1, 5]: 0.8
SMILES: Cc1cc(F)c(N=C2NCCS2)cc1[S+]([O-])CC(F)(F)F (stereo not drawn) [2-Fluoro-4-methyl-N-[1,3-thiazolidin-2-ylidene]-5-[(2,2,2-trifluoroethyl)sulfinyl]aniline]

logP(HCOOH) ([1]; pH 2.7): 4.53 | logP(neutral) ([1]; pH 7.8): 4.47
SMILES: Cc1cc(F)c(SCC(F)(F)F)cc1N=C(N(C)C)C(F)(F)F [Ia-24]

chromatographic logP [1, 5]: 1.83 | chromatographic logP [1, 6]: 4.92
SMILES: Cc1cc(F)c(/N=C2\CCCN2c2ccccc2)cc1SCC(F)(F)F [2-Fluoro-4-methyl-N-[(2E)-1-phenylpyrrolidin-2-ylidene]-5-[(2,2,2-trifluoroethyl)sulfanyl]aniline]

chromatographic logP [1, 5]: 4.77 | chromatographic logP [1, 6]: 4.73
SMILES: FC(F)(F)CSc1cc(N=C(Cl)C(F)(F)F)ccc1Cl [N-{4-Chloro-3-[(2,2,2-trifluoroethyl)sulfanyl]phenyl}-2,2,2-trifluoroethanimidoyl chloride]

SMILES: O=C(Nc1ccc(Br)cc1Cl)C(F)(F)F [VI-3, N-(4-Bromo-2-chlorophenyl)-2,2,2-trifluoroacetamide]
chromatographic logP [1, 3]: 3.01 | chromatographic logP [1, 4]: 2.81

chromatographic logP [1, 5]: 2.01
SMILES: Nc1cccc(SCC(F)(F)F)c1 [3-[(2,2,2-Trifluoroethyl)sulfanyl]aniline]

SMILES: O=C(Nc1ccc(Br)cc1F)C(F)(F)F [VI-7, N-(4-Bromo-2-fluorophenyl)-2,2,2-trifluoroacetamide]
chromatographic logP [1, 3]: 2.73 | chromatographic logP [1, 4]: 2.51

chromatographic logP [1, 5]: 4.2 | chromatographic logP [1, 6]: 4.17
SMILES: Cc1cc(F)c(NC(=O)c2ccc(C(F)(F)F)cc2)cc1SCC(F)(F)F [N-{2-Fluoro-4-methyl-5-[(2,2,2-trifluoroethyl)sulfanyl]phenyl}-4-(trifluoromethyl)benzamide]

chromatographic logP [1, 5]: 2.2 | chromatographic logP [1, 6]: 2.19
SMILES: Cc1cc(F)ccc1NC(=O)C(F)(F)F [VI-2, 2,2,2-Trifluoro-N-(4-fluoro-2-methylphenyl)acetamide]

SMILES: O=C1CS/C(=N\c2cc([S+]([O-])CC(F)(F)F)ccc2Cl)N1CC(F)(F)F (stereo not drawn) [Ib-121]
pest or weed control at 500 g/ha [2]: 100%

SMILES: Cc1cc(C)c(SCC(F)(F)F)cc1/N=C(\N)C(F)(F)C(F)(F)Cl [Ia-65]
pest or weed control at 500 g/ha [2]: 100%

SMILES: Cc1cc(F)c(/N=C(/c2ccccc2Cl)N(C)C)cc1SCC(F)(F)F [Ia-84]
pest or weed control at 500 g/ha [2]: 100%

SMILES: Cc1cc(Cl)c(SCC(F)(F)F)cc1/N=C(\N)C1(Cl)CC1 [Ia-74]
pest or weed control at 500 g/ha [2]: 100%

SMILES: CN/C(=N/c1cc([S+]([O-])CC(F)(F)F)c(C)cc1F)c1ccc(C(F)(F)F)nc1 (stereo not drawn) [Ib-92]
pest or weed control at 500 g/ha [2]: 100%

SMILES: N/C(=N\c1cc(SCC(F)(F)F)c(Cl)cc1Cl)C1CCCO1 (stereo not drawn) [Ia-262]
pest or weed control at 500 g/ha [2]: 90%

SMILES: CN/C(=N/c1ccc(C)c([S+]([O-])CC(F)(F)F)c1)C(F)(F)F (stereo not drawn) [Ib-125]
pest or weed control at 500 g/ha [2]: 100%

SMILES: Cc1cc(F)c(/N=C(\N)C2(Cl)CC2)cc1[S+]([O-])CC(F)(F)F (stereo not drawn) [Ib-22]
pest or weed control at 500 g/ha [2]: 100%

SMILES: N/C(=N\c1cccc(SCC(F)(F)F)c1)c1ccccn1 [Ia-83]
pest or weed control at 500 g/ha [2]: 100%

SMILES: CN/C(=N/c1cc([S+]([O-])CC(F)(F)F)c(C)cc1F)c1cccc(F)c1 (stereo not drawn) [Ib-67]
pest or weed control at 500 g/ha [2]: 90%

SMILES: Cc1cc(F)c(/N=c2\scc(C3(Cl)CC3)n2CC(F)(F)F)cc1[S+]([O-])CC(F)(F)F (stereo not drawn) [Ib-172]
pest or weed control at 500 g/ha [2]: 90%

SMILES: FC(F)CN/C(=N\c1cc(SCC(F)(F)F)c(Cl)cc1Cl)C1CCCC1 [Ia-256]
pest or weed control at 500 g/ha [2]: 90%

SMILES: Cc1cc(F)c(/N=C2\CCCN2C(C)C(F)(F)F)cc1SCC(F)(F)F (stereo not drawn) [Ia-201]
pest or weed control at 500 g/ha [2]: 100%

SMILES: Cc1cc(C)c([S+]([O-])CC(F)(F)F)cc1/N=C1\SCC(=O)N1C1CC1 (stereo not drawn) [Ib-156]
pest or weed control at 500 g/ha [2]: 90%

SMILES: Cc1cc(F)c(/N=C(\NC2CC2)c2ccc(Cl)nc2)cc1[S+]([O-])CC(F)(F)F (stereo not drawn) [Ib-88]
pest or weed control at 500 g/ha [2]: 100%

SMILES: Cc1cc(F)c(/N=C2\SCC(=O)N2CC(F)F)cc1SCC(F)(F)F [Ia-188]
pest or weed control at 500 g/ha [2]: 100%

SMILES: Cc1cc(F)c(/N=C(\NCC(F)F)C2CC2)cc1[S+]([O-])CC(F)(F)F (stereo not drawn) [Ib-132]
pest or weed control at 500 g/ha [2]: 100%

SMILES: C#CCN/C(=N\c1cc(SCC(F)(F)F)c(Cl)cc1Cl)C1CC1 [Ia-244]
pest or weed control at 500 g/ha [2]: 90%

SMILES: Cc1cc(C)c(SCC(F)(F)F)cc1/N=C(\NCC(F)(F)F)C1CCC1 [Ia-267]
pest or weed control at 500 g/ha [2]: 90%

SMILES: Cc1cc(F)c(/N=C(\c2ccc(C(F)(F)F)nc2)N(C)C)cc1SCC(F)(F)F [Ia-160]
pest or weed control at 500 g/ha [2]: 90%

SMILES: CN/C(=N/c1ccc(Cl)c(SCC(F)(F)F)c1)C(F)(F)F [Ia-217]
pest or weed control at 500 g/ha [2]: 100%

SMILES: Cc1cc(F)c(/N=C2\SCC(=O)N2C)cc1[S+]([O-])CC(F)(F)F (stereo not drawn) [Ib-134]
pest or weed control at 500 g/ha [2]: 90%

SMILES: Cc1cc(F)c(N=C(NS(=O)(=O)C(F)(F)F)C(F)(F)F)cc1SCC(F)(F)F [Ia-16]
efficacy (spider mites killed) [2]: 100%

SMILES: Cc1cc(Cl)c(SCC(F)(F)F)cc1/N=C(\N)c1ccccn1 [Ia-49]
pest or weed control at 500 g/ha [2]: 100%

SMILES: Cc1cc(C)c([S+]([O-])CC(F)(F)F)cc1/N=C1\CCCN1C(C)C(F)(F)F (stereo not drawn) [Ib-112]
pest or weed control at 500 g/ha [2]: 100%

SMILES: Cc1cc(Cl)c(/N=C(\N)C(F)(F)F)cc1SCC(F)(F)F [Ia-56]
pest or weed control at 500 g/ha [2]: 100%

SMILES: Cc1cc(F)c(/N=C2\SCC(=O)N2C2CC2)cc1SCC(F)(F)F [Ia-197]
pest or weed control at 500 g/ha [2]: 100%

SMILES: COc1cc(C)c(SCC(F)(F)F)cc1/N=C(/N)C(F)(F)F [Ia-236, 2,2,2-Trifluoro-N′-{2-methoxy-4-methyl-5-[(2,2,2-trifluoroethyl)sulfanyl]phenyl}ethanimidamide]
pest or weed control at 500 g/ha [2]: 100%

SMILES: CCN/C(=N\c1cc([S+]([O-])CC(F)(F)F)c(C)cc1F)c1cccnc1 (stereo not drawn) [Ib-84]
pest or weed control at 500 g/ha [2]: 100%

SMILES: CN/C(=N\c1cc(SCC(F)(F)F)c(C)cc1Cl)c1cccnc1 [Ia-64]
pest or weed control at 500 g/ha [2]: 100%

SMILES: Cc1ccc(/N=C(/N(C)C)C(F)(F)F)cc1SCC(F)(F)F [Ia-222]
pest or weed control at 500 g/ha [2]: 100%

SMILES: Cc1cc(F)c(/N=C(\N)C2CC2(Cl)Cl)cc1SCC(F)(F)F (stereo not drawn) [Ia-75]
pest or weed control at 500 g/ha [2]: 100%

SMILES: CN/C(=N\c1cc([S+]([O-])CC(F)(F)F)c(Cl)cc1Cl)c1ccc(C(F)(F)F)nc1 (stereo not drawn) [Ib-144]
pest or weed control at 500 g/ha [2]: 90%

SMILES: Cc1cc(F)c(/N=C(\N)C2CCCO2)cc1SCC(F)(F)F (stereo not drawn) [Ia-99]
pest or weed control at 500 g/ha [2]: 100%
